The values below are quoted from earlier work in patent publication US20080031932A1, “Transdermal atomoxetine formulations and associated methods” (Watson Laboratories, Inc., priority 2006, published 2008).

In series [1] the target is serotonin reuptake (Homo sapiens, UniProt P31645).
Series [2] deals with other receptor systems.
Series [3] deals with norepinephrine reuptake transporter (Homo sapiens, UniProt P23975). Conditions: compared to atomoxetine.
Chain of norepinephrine reuptake transporter (P23975 whole entry): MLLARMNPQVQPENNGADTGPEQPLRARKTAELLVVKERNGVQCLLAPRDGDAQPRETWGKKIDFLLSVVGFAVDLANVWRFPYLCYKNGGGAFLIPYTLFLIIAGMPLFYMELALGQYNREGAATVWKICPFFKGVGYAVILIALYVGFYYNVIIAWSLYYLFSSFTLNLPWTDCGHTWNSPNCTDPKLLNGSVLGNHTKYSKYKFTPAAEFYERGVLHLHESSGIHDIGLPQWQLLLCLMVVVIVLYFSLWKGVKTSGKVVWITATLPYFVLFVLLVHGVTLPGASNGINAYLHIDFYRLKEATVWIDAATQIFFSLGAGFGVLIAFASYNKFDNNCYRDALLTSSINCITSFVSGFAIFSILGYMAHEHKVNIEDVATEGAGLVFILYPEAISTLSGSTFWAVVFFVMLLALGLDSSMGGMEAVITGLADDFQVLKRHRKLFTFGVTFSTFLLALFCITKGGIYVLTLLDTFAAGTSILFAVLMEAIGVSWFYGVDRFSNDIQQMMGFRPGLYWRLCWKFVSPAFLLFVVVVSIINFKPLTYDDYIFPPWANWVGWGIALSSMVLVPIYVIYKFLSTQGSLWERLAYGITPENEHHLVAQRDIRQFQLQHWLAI

Chain of serotonin reuptake (P31645 whole entry): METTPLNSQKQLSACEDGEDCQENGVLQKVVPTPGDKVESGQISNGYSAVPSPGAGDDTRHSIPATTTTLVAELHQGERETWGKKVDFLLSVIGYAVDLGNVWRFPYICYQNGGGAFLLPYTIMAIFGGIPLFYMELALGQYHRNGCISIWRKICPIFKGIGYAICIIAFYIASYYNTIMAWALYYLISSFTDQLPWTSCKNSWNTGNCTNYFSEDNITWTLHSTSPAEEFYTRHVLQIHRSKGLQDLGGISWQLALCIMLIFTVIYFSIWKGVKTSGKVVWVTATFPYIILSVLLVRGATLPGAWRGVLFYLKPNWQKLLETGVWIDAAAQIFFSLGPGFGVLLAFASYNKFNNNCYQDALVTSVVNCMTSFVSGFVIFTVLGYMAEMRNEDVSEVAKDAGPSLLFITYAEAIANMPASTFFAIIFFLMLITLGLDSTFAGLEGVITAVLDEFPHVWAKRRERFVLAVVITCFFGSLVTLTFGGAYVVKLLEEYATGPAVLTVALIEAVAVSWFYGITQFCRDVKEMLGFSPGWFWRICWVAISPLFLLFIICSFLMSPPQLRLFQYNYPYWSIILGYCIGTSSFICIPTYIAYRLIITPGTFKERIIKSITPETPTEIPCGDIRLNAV

With `CNCCC(Oc1ccc(O)cc1C)c1ccccc1` (stereo not drawn) [Example 4HA, 4-hydroxyatomoxetine], the serotonin reuptake inhibition entry in series [1] is “pharmacologically active serotonin reuptake inhibitor”. In addition, the “affinity to other receptor systems” value in series [2] is “little affinity”.

For `Cc1ccccc1OC(CCN)c1ccccc1` (stereo not drawn) [NDA, N-desmethylatomoxetine], in series [2], the “affinity to other receptor systems” value is “little affinity”. The “inhibitory activity to the norepinephrine reuptake transporter” value in series [3] is recorded as “less active”.

As to `CNCCC(Oc1ccccc1C)c1ccccc1` (single isomer, unassigned; (-)) [atomoxetine, (−)-N-methyl-3-phenyl-3-(o-tolyloxy)-propylamine], the plasma half-life entry (individuals having normal activity in the CYP2D6 pathway) is “about 5 hours”. Also, the half-life entry (individuals with reduced activity in the CYP2D6 pathway (poor metabolizers)) was “about 24 hours”.
